Source: US20080090278A1, “METHOD FOR ENHANCING STABILITY OF A COMPOSITION COMPRISING SOLUBLE GLUCOSE DEHYDROGENASE (GDH)” (TOYO BOSEKI KABUSHIKI KAISHA, priority 2006, published 2008)

Columns and labels:
[1] = system: recombinant FAD-GDH (rAO-FAD-GDH) derived from Aspergillus oryzae; assay: Thermal stabilization effect of stabilizing agents on rAO-FAD-GDH in solution (Examples 3-6); type: physicochemical; conditions: for thermal stabilization effect on FAD-GDH (in words): 50° C. for 15 minutes, Example 3
Description: Enhancement of the thermal stability referred to herein means increasing of a residual ratio (%) of the GDH enzyme kept after giving the treatment with heat at a certain temperature for a certain time period to the composition comprising the GDH enzyme. In the present invention, the activity in the sample stored at 4° C. which is nearly completely kept is made 100%, this is compared with the activity in the GDH solution after giving the treatment with heat at a certain-temperature for a certain time period, and the residual ratio of the enzyme is calculated.
In the method for measuring the activity described in the method for measuring the GDH enzyme activity described later, an activity value (a) of GDH in the solution stored at 4° C. and an activity value (b) of GDH after giving the treatment with heat at a certain temperature for a certain time period were measured, a relative value[(b)/(a)×100] when the activity value (a) was made 100 was calculated. This relative value was made the residual ratio (%). Comparing the presence with the absence of the added compound, when the residual ratio was increased by the addition of the compound, it was determined that the thermal stability was enhanced.
In the present invention, the activity of FAD-dependent GDH is measured as follows.
The reaction-reagent is made by mixing 15.6 mL of the PIPES buffer, 0.2 mL of the DCPIP solution and 4 mL of the D-glucose solution.
(§1) The reaction reagent (3 mL) is preliminarily heated at 37° C. for 5 minutes. The GDH solution (0.1 mL) is added and gently mixed, subsequently the change of absorbance at 600 nm is recorded for 5 minutes using the spectrophotometer controlled to 37° C. using water as the control, and the change of absorbance per one minute (ΔODTEST) is calculated from the linear portion of the record. The solvent in which GDH will be dissolved in place of the blinded GDH solution is added to the reagent mixture, and the change of absorbance (ΔODBLANK) per one minute is measured. The GDH activity is calculated from these values according to the following formula. One unit (U) in the GDH activity is defined as the amount of the enzyme which reduces […] DCPIP for one minute in the presence of 200 mM D-glucose. Activity (U/mL)=[−(ΔODTEST−ΔODBLANK)×3.0×dilution scale]/(16.3×0.1×1.0) In the above formula, 3.0 represents a liquid amount (mL) of the reaction reagent+the enzyme solution, 16.3 represents a millimolar molecular absorbance coefficient (cm^2/μmol) in the condition for measuring this enzyme, 0.1 represents the liquid amount of the enzyme solution (mL) and 1.0 represents a light path length (cm) of the cell.
The study was performed in accordance with the method for measuring the FAD-GDH activity in Test Example 1 described above.
First, 50 mL of an enzyme solution obtained by dissolving the recombinant FAD-GDH (rAO-FAD-GDH)-derived from Aspergillus oryzae obtained in Example 1 at about 2 U/mL in an enzyme dilution solution (50 mM potassium phosphate buffer, pH 5.5, 0.1% Triton X-100) was prepared. Two tubes in which each stabilizing agent described in Table 1 had been added at each final concentration to 0.9 mL of this enzyme solution to make the total volume 1.0 mL were prepared.
In two tubes, one tube was stored at […] and another tube was treated at 50° C. for 15 minutes. Then, the FAD-GDH activity in each tube was measured. The enzyme activity in the tube stored at 4° C. was made 100, and comparing with it, the activity value after being treated at 50° C. for 15 minutes was calculated as the residual activity ratio (%).
The method was in accordance with Example 3 described above.
The methods were in accordance with Example 3 above.

[2] = system: recombinant FAD-GDH (rAT-FAD-GDH) derived from Aspergillus terreus; assay: Thermal stabilization effect of stabilizing agents on rAT-FAD-GDH in solution (Example 9); type: physicochemical; conditions: for Residual activity ratio (%) / GLD activity value (U/ml) 50° C., 15 min: Table 10, buffer 50 mM K-PB, stabilizer at each final concentration described in Table 1; for Residual activity ratio (%): 50° C., 15 min versus 4° C.; for thermal stabilization effect on FAD-GDH (in words): rAT-FAD-GDH, 50° C. for 15 minutes, Example 9
Description: as §1, with “D-glucose.” for “D-glucose. Activity (U/mL)=[−(ΔODTEST−ΔODBLANK)×3.0×dilution scale]/(16.3×0.1×1.0) In the above formula, 3.0 represents a liquid amount (mL) of the reaction reagent+the enzyme solution, 16.3 represents a millimolar molecular absorbance coefficient (cm^2/μmol) in the condition for measuring this enzyme, 0.1 represents the liquid amount of the enzyme solution (mL) and 1.0 represents a light path length (cm) of the cell.”
Two tubes in which each stabilizing agent described in Table 1 had been added at each final concentration to 0.9 mL of this enzyme solution to make the total volume 1.0 mL were prepared.
In two tubes, one tube was stored at 4° C. and another tube was treated at 50° C. for 15 minutes. Then, the FAD-GDH activity in each tube was measured. The enzyme activity in the tube stored at 4° C. was made 100, and comparing with it, the activity value after being treated at 50° C. for 15 minutes was calculated as the residual activity ratio (%).

[3] = stabilizer final concentration 1%, rAO-FAD-GDH about 2 U/mL, 50 mM potassium phosphate buffer pH 5.5, 0.1% Triton X-100, 4° C. sample = 100
[4] = stabilizer final concentration 0.25%, rAO-FAD-GDH, pH 5.5

Molecule	thermal stabilization effect on FAD-GDH (in words) ([1]; rAO-FAD-GDH)	Residual activity ratio (%) after treatment at 50° C., 15 min [1, 3] [%]	Residual activity ratio (%) [2] [%]	GLD activity value (U/ml) 50° C., 15 min [2] [U/ml]	thermal stabilization effect on FAD-GDH (in words) [2]	Residual activity ratio (%) after treatment at 50° C., 15 min [1, 4] [%]	Residual activity ratio (%) after treatment at 50° C., 15 min ([1]; stabilizer final concentration 0.20%, rAO-FAD-GDH, pH 5.5) [%]	Residual activity ratio (%) after treatment at 50° C., 15 min ([1]; stabilizer final concentration 0.10%, rAO-FAD-GDH, pH 5.5) [%]
OC[C@H]1O[C@@](CO)(O[C@H]2O[C@H](CO)[C@@H](O)[C@H](O)[C@H]2O)[C@@H](O[C@H]2O[C@H](CO)[C@@H](O)[C@H](O)[C@H]2O)[C@@H]1O [D-(+)-melezitose]	high effect	44.7	6.9	0.193	high effect			
[Cl-].[Na+] [Sodium chloride]	high effect				high effect			
Cl.NCCCC[C@H](N)C(=O)O [L-lysine hydrochloride]	high effect	23.4	3.5	0.093	high effect			
O=S(=O)([O-])[O-].[Na+].[Na+] [Sodium sulfate]	high effect				high effect			
Inulin		24.7	1.8	0.053				
O=C(O)[C@@H]1CCCN1 [L-(−)-proline]		25.2	1.8	0.048				
O=C(O)[C@H]1CCCN1 [D-proline]		24.8	2.8	0.079				
OC[C@@H](O)[C@H]1OC[C@H](O)[C@H]1O [1,4-sorbitane]	high effect	26.7	2.5	0.072	high effect			
O=CC[C@@H](O)[C@H](O)[C@H](O)CO [2-deoxy-D-glucose]	high effect	69.6	36.9	1.032	high effect			
N[C@@H](Cc1c[nH]cn1)C(=O)O [L-histidine]			0.5	0.015		11.4		
NCCS(=O)(=O)O [Taurine]	high effect	23.8	3.2	0.081	high effect			
O=C(O)CC(=O)O [Malonic acid]	high effect				high effect			
NC(=O)C[C@H](N)C(=O)O [L-asparagine]			1.6	0.044			22.8	
O=C(O)CCC(=O)O [Succinic acid]	high effect				high effect			
CO[C@H]1O[C@H](CO)[C@@H](O)[C@H](O)[C@H]1O [Methyl-a-D-glucoside]	high effect	53.6	9.4	0.267	high effect			
O=C1O[C@H](CO)[C@@H](O)[C@H](O)[C@H]1O [Glucono-1,5-lactone]		0.0	0.1	0.003				
O=C[C@H](O)[C@@H](O)[C@H](O)[C@H](O)C(=O)[O-].[Na+] [D-sodium glucuronate]	high effect	56.2	10.0	0.279	high effect			
CC(C)C[C@H](N)C(=O)O [L-leucine]			1.4	0.038				22.2
N[C@@H](CC(=O)O)C(=O)O [L-aspartic acid]		12.2	0.2	0.005				
OC[C@H]1O[C@@](CO)(O[C@H]2O[C@H](CO)[C@@H](O)[C@H](O)[C@H]2O)[C@@H](O)[C@@H]1O [Sucrose]	high effect	44.1	2.1	0.058	high effect			
NC(=O)CC[C@H](N)C(=O)O [L-glutamine]			1.7	0.046		22.6		
O=C(O)C1OC(O)C(O)C(O)C1O [D-a-galacturonic acid]		0.0	0.2	0.004				
